Reference: patent US11945787B2, “Substituted imidazoles for preventing and/or treating cell or tissue necrosis” (Ela Pharma Ltd, priority 2015, dated 2024)
Where a SMILES comes first, the peptide text is derived from it. The star is where a group is joined. CHN2 = [N-]=[N+]=C*

System: PC12 cells
Assay: KCN-induced necrosis of PC12 cells, LDH release
Format: cell-based, rat
Settings: for inhibition at 0.01 µM / inhibition at 0.1 µM / inhibition at 1 µM / inhibition at 0.0001 µM / inhibition at 0.001 µM: Rattus norvegicus, PC-12, 5 h, KCN, PC12, LDH release (Table 5); for inhibition at 0.01 µM / % protection at indicated concentration 10 nM: 10 nM; for inhibition at 0.01 µM: read-out: % protection At 10 nM; for inhibition at 0.1 µM: read-out: % protection at 0.1 μM; for inhibition at 1 µM: read-out: % protection at 1 μM; for inhibition at 0.0001 µM / % protection at indicated concentration 0.1 nM: 0.1 nM; for inhibition at 0.0001 µM: read-out: % protection at 0.1 nM; for inhibition at 0.001 µM / % protection at indicated concentration 1 nM: 1 nM; for inhibition at 0.001 µM: read-out: % protection at 1 nM; for % protection at indicated concentration 0.1 nM / % protection at indicated concentration 1 nM / % protection at indicated concentration 10 nM / % protection at indicated concentration 100 nM / % protection at indicated concentration 1 μM / protection of cells at 10 μM: KCN-induced necrosis (Table 2)
Protocol: The rat pheochromocytoma PC12 cell line was propagated in DMEM medium (Beit Haemek, Israel), supplemented with 5% heat-inactivated calf serum, 10% heat-inactivated horse serum, 2 mM L-glutamine, 100 U/ml penicillin and 100 μg/ml streptomycin. PC12 cells in logarithmic phase were seeded at a concentration of 1.2×10^5/well in 96-well plates and incubated overnight.
Thereafter, the cells were washed twice and maintained in RPMI-1640 (U-937cells) and DMEM (PC-12 cells) glucose-free medium, supplemented with 2 mM pyruvate and 10% dialyzed FCS for one hour. Then cells were treated with or without KCN (Merck, Germany) at the indicated concentrations for 7 hours (U-937 cells), or for 5 hours (PC12 cells).
Elastase inhibitors II (MeOSuc-AAPA-CMK) and elastase inhibitor III (MeOSuc-AAPV-CMK) were purchased from Calbiochem-Novabiochem, USA. Compound Gly-Phe diazomethylketone was purchased from MP Biomedicals, USA. All the compounds disclosed in Table 1 hereinabove were purchased from ChemDiv, San Diego, CA. The compounds were dissolved in DMSO and were administered 30 min before addition of the cell death inducer. The final concentration of DMSO, added to all samples, was 0.1%, which had no effect by itself siRNA and cell transfection
The amount of LDH released from lysed cells is a sensitive measure of cell death. Necrotic cell death was measured in 96-well plates using Promega CytoTox 96 LDH assay kit. LDH content from the cells lysed in 0.1% Triton X-100 for 10 min was used as an index of total LDH. The LDH released in culture medium was used as an index of necrotic cell death and the percentage from total LDH was calculated. The protection by the inhibitor was calculated based on comparing percentage of LDH release in the presence and in the absence of the inhibitor. The inhibitors were also added to totals, blanks and controls. Absorbance at 490 nm was measured by ELISA reader (BioTec).
These compounds were tested for their ability to inhibit necrosis induced by KCN in PC12 cells. The necrotic mode of cell death in this system was validated as previously described. PC12 cells were challenged with KCN as described above. The protective results of the compounds against KCN-induced necrosis assessed using LDH release method are shown below in Table 5. The IC50 values of these inhibitors is in the range of tens to single nanomolar.

SMILES	inhibition at 0.01 µM [%]	inhibition at 0.1 µM [%]	inhibition at 1 µM [%]	further results
O=C(NCCNC(=O)c1nc(Cn2cc(Cl)cn2)no1)c1cccc(F)c1 [8019-5381, 3-((4-chloro-1H-pyrazol-1-yl)methyl)-N-(2-(3-fluorobenzamido)ethyl)-1,2,4-oxadiazole-5-carboxamide]	32	49	56	–
CC1Cc2ccccc2N1S(=O)(=O)c1ccc(C(=O)O)cc1 (stereo not shown) [D216-0746, 4-((2-methylindolin-1-yl)sulfonyl)benzoic acid]	47	84	90	inhibition at 0.0001 µM: 29%; inhibition at 0.001 µM: 37%
Cn1c(=O)[nH]c(=O)c2[nH]c(N3CCCCC3)nc21 [D226-0031, 3-methyl-8-(piperidin-1-yl)-1H-purine-2,6(3H,7H)-dione]	43	37	65	inhibition at 0.0001 µM: 29%; inhibition at 0.001 µM: 26%
CCOC(=O)C1=C(C)N(CC(=O)NCc2ccc(C)cc2)c2ncnn2C1c1ccccc1 (stereo not shown) [D529-0049, ethyl 5-methyl-4-(2-((4-methylbenzyl)amino)-2-oxoethyl)-7-phenyl-4,7-dihydro-[1,2,4]triazolo[1,5-a]pyrimidine-6-carboxylate]	33	42	51	–
CCn1c2ccccc2c2nnc(NCc3ccccn3)nc21 [E205-0066, 5-ethyl-N-(pyridin-2-ylmethyl)-5H-[1,2,4]triazino[5,6-b]indol-3-amine]	18	32	58	–
Cc1[nH]c(=O)[nH]c(=O)c1S(=O)(=O)N1CCCCC1C (stereo not shown) [E214-0380, 6-methyl-5-((2-methylpiperidin-1-yl)sulfonyl)pyrimidine-2,4(1H,3H)-dione]	39	51	83	inhibition at 0.0001 µM: 18%; inhibition at 0.001 µM: 21%
CCc1ccccc1S(=O)(=O)Nc1ccc(N2CCN(CC)CC2)cc1C(=O)O [F684-0507, 2-(2-ethylphenylsulfonamido)-5-(4-ethylpiperazin-1-yl)benzoic acid]	–	–	56	–
Nc1ncc(S(=O)(=O)Nc2ccc(F)cc2F)cn1 [G830-0845, 2-amino-N-(2,4-difluorophenyl)pyrimidine-5-sulfonamide]	–	–	54	–
[N-]=[N+]=CC(=O)[C@H](Cc1ccccc1)NC(=O)CN [Gly-Phe-DMK, Gly-Phe-diazomethylketone, reference compound] (H-Gly-Phe-CHN2)	–	–	–	KCN-induced necrotic cell death assessed by LDH release (PC12, KCN 5 hours, FIGS. 6, 7A-B): inhibited cell necrosis
CC(=O)Nc1nc(SCCC(=O)O)n[nH]1 [L150-1122, 3-((5-acetamido-1H-1,2,4-triazol-3-yl)thio)propanoic acid]	30	44	68	inhibition at 0.0001 µM: 22%; inhibition at 0.001 µM: 25%
Cc1ccnc(Nc2nc(-c3cc(C)c(C)cc3C)cs2)c1 [M008-0111, N-(4-methylpyridin-2-yl)-4-(2,4,5-trimethylphenyl)thiazol-2-amine]	38	46	90	% protection at indicated concentration 0.1 nM: 29%; % protection at indicated concentration 1 nM: 36%; % protection at indicated concentration 10 nM: 38%; % protection at indicated concentration 100 nM: 46%; % protection at indicated concentration 1 μM: 90%; inhibition at 0.0001 µM: 29%; inhibition at 0.001 µM: 36%
O=C(c1ccco1)N1CCN=C1N1CCCC1 [M059-0032, furan-2-yl(2-(pyrrolidin-1-yl)-4,5-dihydro-1H-imidazol-1-yl)methanone]	37	59	72	inhibition at 0.0001 µM: 7%; inhibition at 0.001 µM: 25%
CCC(CC)C(=O)N1CCN=C1N1CCCC1 [M059-0053, 2-ethyl-1-(2-(pyrrolidin-1-yl)-4,5-dihydro-1H-imidazol-1-yl)butan-1-one]	–	–	39	–
O=C(CC1CCCC1)N1CCN=C1N1CCCC1 [M059-0055, 2-cyclopentyl-1-(2-(pyrrolidin-1-yl)-4,5-dihydro-1H-imidazol-1-yl)ethanone]	–	–	68	–
O=C(C1CCCC1)N1CCN=C1N1CCCC1 [M059-0082, cyclopentyl(2-(pyrrolidin-1-yl)-4,5-dihydro-1H-imidazol-1-yl)methanone]	–	–	–	% protection at indicated concentration 0.1 nM: 33%; % protection at indicated concentration 1 nM: 25%; % protection at indicated concentration 10 nM: 51%; % protection at indicated concentration 100 nM: 79%; % protection at indicated concentration 1 μM: 85%
O=C(c1ccccc1Br)N1CCN=C1N1CCCCC1 [M059-0193, (2-bromophenyl)-[2-(1-piperidyl)-4,5-dihydroimidazol-1-yl] methanone]	–	–	–	protection of cells at 10 μM: 10 μM confers protection 58% of cells
O=C(c1ccccc1F)N1CCN=C1N1CCCCC1 [M059-0216, (2-fluorophenyl)-[2-(1-piperidyl)-4,5-dihydroimidazol-1-yl] methanone]	–	–	–	protection of cells at 10 μM: 10 μM confers protection 71% of cells
O=C(c1ccccc1Cl)N1CCN=C1N1CCCCC1 [M059-0326, (2-chlorophenyl)-[2-(1-piperidyl)-4,5-dihydroimidazol-1-yl] methanone]	–	–	–	protection of cells at 10 μM: 10 μM confers protection 56% of cells
CCCC(=O)N1CCN=C1N1CCCCC1 [M059-0335, 1-(2-(piperidin-1-yl)-4,5-dihydro-1H-imidazol-1-yl)butan-1-one]	–	–	47	–
CCN1CCN(C2=NCCN2C(=O)C2CCCC2)CC1 [M059-1012, cyclopentyl(2-(4-ethylpiperazin-1-yl)-4,5-dihydro-1H-imidazol-1-yl)methanone]	–	51	–	–
CC(C)N1CCN(C(=O)CN2C(=O)C3CCCN3C(=O)c3cc(F)ccc32)CC1 (stereo not shown) [M284-0488, 7-fluoro-10-(2-(4-isopropylpiperazin-1-yl)-2-oxoethyl)-2,3-dihydro-1H-benzo[e]pyrrolo[1,2-a][1,4]diazepine-5,11(10H,11aH)-dione]	82	72	80	inhibition at 0.0001 µM: 35%; inhibition at 0.001 µM: 51%
O=C(CN1C(=O)C2CCCN2C(=O)c2ccc(F)cc21)Nc1ccc(F)c(F)c1 (stereo not shown) [M284-0942, N-(3,4-difluorophenyl)-2-(8-fluoro-5,11-dioxo-2,3,11,11a-tetrahydro-1H-benzo[e]pyrrolo[1,2-a][1,4]diazepin-10(5H)-yl)acetamide]	–	52	–	–
O=C1C(NS(=O)(=O)c2ccc(Cl)s2)CCN1c1ccccc1 (stereo not shown) [P316-0028, 5-chloro-N-(2-oxo-1-phenylpyrrolidin-3-yl)thiophene-2-sulfonamide]	43	49	53	–
O=C(O)c1nc2ncccn2n1 [R052-2664, [1,2,4]triazolo[1,5-a]pyrimidine-2-carboxylic acid]	21	49	50	–
O=C(N1CCN(c2nnc3ccc(Cl)cn23)CC1)C1(c2ccccc2)CC1 [T404-2346, (4-(6-chloro-[1,2,4]triazolo[4,3-a]pyridin-3-yl)piperazin-1-yl)(1-phenylcyclopropyl)methanone]	–	42	–	–
CC(C)C(=O)Nc1ccc(Oc2ccc(NC(=O)C(C)C)cc2)cc1 [Y200-4083, N,N'-(oxybis(4,1-phenylene))bis(2-methylpropanamide)]	–	–	–	% protection at indicated concentration 0.1 nM: 11%; % protection at indicated concentration 1 nM: 25%; % protection at indicated concentration 10 nM: 32%; % protection at indicated concentration 100 nM: 49%; % protection at indicated concentration 1 μM: 74%
O=S1(=O)N=C(NCCN2CCCC2)C(NCCN2CCCC2)=N1 [Z087-0195, 3,4-bis((2-(pyrrolidin-1-yl)ethyl)amino)-1,2,5-thiadiazole 1,1-dioxide]	25	80	98.5	inhibition at 0.0001 µM: 9%; inhibition at 0.001 µM: 21%
